The record followed here is patent publication US7109186B2 (Bristol-Myers Squibb Company, priority 2002, dated 2006).

For one data set, the target named is T1, HIV-integrase (Human immunodeficiency virus type 1 group M subtype B, UniProt P04585).
T1 construct: 0.26 ng of recombinant integrase was incubated with the beads for 90 min at 37 C
The data set can be described thus: HIV integrase SPA integration assay (biotin-labeled substrate DNA on streptavidin SPA beads, P33-labeled target DNA). The format is biochemical. The settings on record: percent inhibition of HIV-integrase in the presence of 20 μM of compound. How it is done:
For each reaction, 5 pmole of biotin labeled substrate DNA was bound to 100 ug of Streptavidin coated PVT SPA beads (Amersham Pharmacia Biotech). 0.26 ng of recombinant integrase was incubated with the beads for 90 min at 37 C. Unbound enzyme was removed by washing the complex followed by addition of inhibitors and 0.1 fmol of P33 labeled target DNA. Reaction was stopped by adding EDTA to a final concentration of 10 mM. Samples were counted in TopCountNXT (Packard) and the CPM was used as a measure of integration. Reaction condition was as described in A. Engelman and R. Craigie, J. Virol. 69, 5908–5911 (1995). The sequences of substrate and target DNA were described in Nucleic Acid Research 22, 1121–1122 (1994).

Turning to `CON(Cc1ccc(F)cc1)C(=O)C1=C(O)C(=O)N(C)C1`, the melting point was 125 °C (dec.).
The same measure, in the same setting: the value for `CN1CC(C(=O)N(C)Cc2ccc(C(F)(F)F)cc2)=C(O)C1=O` was 126 to 128 °C.
For the molecule `CON(Cc1ccc(C(F)(F)F)cc1)C(=O)C1=C(O)C(=O)N(C)C1`, the melting point is 145 °C (dec.).
`CON(Cc1ccc(C(F)(F)F)cc1)C(=O)C1=C(O)C(=O)N(CCN2CCOCC2)C1`: the melting point is 119 °C (dec.).
Same read-out and setting: next, `CON(Cc1ccc(F)cc1C(F)(F)F)C(=O)C1=C(O)C(=O)N(C)C1`: 167 °C (dec.); `CN1CC(C(=O)N(C)CCCc2ccc(F)cc2)=C(O)C1=O`: 129 °C (dec.).
On the same count and under the same terms, next, `CON(CCCc1ccc(Cl)c(Cl)c1)C(=O)C1=C(O)C(=O)N(C)C1`: 106 to 108 °C.
`CN(Cc1ccc(Cl)c(Cl)c1)C(=O)C1=C(O)C(=O)N(C2CC2)C1` [Compound 14, 1-Cyclopropyl-4-hydroxy-5-oxo-2,5-dihydro-1H-pyrrole-3-carboxylic acid (3,4-dichloro-benzyl)-methyl-amide] came in with a melting point of 163 to 164 °C. The inhibition at 20 µM at HIV-integrase was 99.7%.
For `CN(Cc1ccc(Cl)c(Cl)c1)C(=O)C1=C(O)C(=O)N(CCC(=O)O)C1` [Compound 18, 3-[4-[(3,4-dichloro-benzyl)-methyl-carbamoyl]-3-hydroxy-2-oxo-2,5-dihydro-pyrrol-1-yl]-propionic acid], in that order: 183 to 184 °C and 99.9%.
In the case of `CN(Cc1ccc(Cl)c(Cl)c1)C(=O)C1=C(O)C(=O)N(CC(=O)O)C1` [Compound 20, {4-[(3,4-Dichloro-benzyl)-methyl-carbamoyl]-3-hydroxy-2-oxo-2,5-dihydro-pyrrol-1-yl}-acetic acid], the melting point is 178 to 180 °C. For the same molecule, the inhibition at 20 µM on HIV-integrase is 99.9%.
Regarding `CN(Cc1ccc(Cl)c(Cl)c1)C(=O)C1=C(O)C(=O)N(Cc2ccc(C(=O)O)cc2)C1` [Compound 36, 4-{4-[(3,4-Dichloro-benzyl)-methyl-carbamoyl]-3-hydroxy-2: oxo-2,5-dihydro-pyrrol-1-ylmethyl}-benzoic acid], the inhibition at 20 µM at HIV-integrase amounted to 92%.
The same measure, in the same setting: next, `CN(Cc1ccc(Cl)c(Cl)c1)C(=O)C1=C(O)C(=O)N(CCC(=O)NCCC(=O)O)C1` [Compound 37, 3-(3-{4-[(3,4-Dichloro-benzyl)-methyl-carbamoyl]-3-hydroxy-2oxo-2,5-dihydro-pyrrol-1-yl}-propionylamino)-propionic acid]: 99.9%; `CN(Cc1ccc(Cl)c(Cl)c1)C(=O)C1=C(O)C(=O)N(CCNC(=O)CCN2CCOCC2)C1` [Compound 38, 4-Hydroxy-1-[2-(3-morpholin-4-yl-propionylamino)-ethyl]-5-oxo-2,5-dihydro-1H-pyrrole-3-carboxylic acid (3,4-dichloro-benzyl)-methyl-amide]: 99.9%.
Same read-out and setting: next, `CN(Cc1ccc(Cl)c(Cl)c1)C(=O)C1=C(O)C(=O)N(CCC(=O)NCC(=O)O)C1` [Compound 39, (3-{4-[(3,4-Dichloro-benzyl)-methyl-carbamoyl]-3-hydroxy-2-oxo-2,5-dihydro-pyrrol-1-yl}-propionylamino)-acetic acid]: 99.9%.
Still for that read-out and setting: the value for `CN(Cc1ccc(Cl)c(Cl)c1)C(=O)C1=C(O)C(=O)N(CCC(N)=O)C1` [Compound 40, 1-(2-Carbamoyl-ethyl)-4-hydroxy-5-oxo-2,5-dihydro-1H-pyrrole-3-carboxylic acid (3,4-dichloro-benzyl)-methyl-amide] was 99.9%; that for `COC(=O)c1ccc(CN2CC(C(=O)N(C)Cc3ccc(Cl)c(Cl)c3)=C(O)C2=O)cc1` [Compound 41, 4-{4-[(3,4-Dichloro-benzyl)-methyl-carbamoyl]-3-hydroxy-2-oxo-2,5-dihydro-pyrrol-1-ylmethyl}-benzoic acid methyl ester] was 99.9%; that for `CN(Cc1ccc(Cl)c(Cl)c1)C(=O)C1=C(O)C(=O)N(CCC#N)C1` [Compound 42, 1-(2-Cyano-ethyl)-4-hydroxy-5-oxo-2,5-dihydro-1H-pyrrole-3carboxylic acid (3,4-dichloro-benzyl)-methyl-amide] was 99.9%.
As for `CN(Cc1ccc(Cl)c(Cl)c1)C(=O)C1=C(O)C(=O)N(CCCN2CCOCC2)C1` [Compound 43, 4-Hydroxy-1-(3-morpholin-4-yl-propyl)-5-oxo-2,5-dihydro-1H-pyrrole-3-carboxylic acid (3,4-dichloro-benzyl)-methyl-amide], the inhibition at 20 µM at HIV-integrase is 99.9%.
Same read-out and setting: next, `CON(Cc1ccc(F)cc1)C(=O)C1=C(O)C(=O)N(CCN2CCOCC2)C1` [Compound 45, 4-Hydroxy-1-(2-morpholino-4-yl-ethyl)-5-oxo-2,5-dihydro-1H-pyrrole-3-carboxylic acid (4-fluoro-benzyl)-methoxy-amide]: 99.5%; `CON(Cc1ccc(F)cc1)C(=O)C1=C(O)C(=O)N(CCN2CCNCC2)C1` [Compound 46, 4-Hydroxy-5-oxo-1-(2-piperazin-1-yl-ethyl)-2,5-dihydro-1H-pyrrole-3-carboxylic acid (4-fluoro-benzyl)-methoxy-amide]: 99.3%.
Turning to `CON(Cc1ccc(Cl)c(Cl)c1)C(=O)C1=C(O)C(=O)N(C)C1` [Compound 47, 4-Hydroxy-1-methyl-5-oxo-2,5-dihydro-1H-pyrrole-3-carboxylic acid (3,4-dichloro-benzyl)-methoxy-amide], the melting point worked out at 149 °C. The inhibition at 20 µM at HIV-integrase amounted to 99.9%.
Taken in the same sequence, the figures for `CON(Cc1cccc(F)c1)C(=O)C1=C(O)C(=O)N(C)C1` [Compound 49, 4-Hydroxy-1-methyl-5-oxo-2,5-dihydro-1H-pyrrole-3-carboxylic acid (3-fluoro-benzyl)-methoxy-amide] were 119 °C (dec.) and 98.5%.
Taken in the same sequence, the figures for `CON(Cc1ccccc1F)C(=O)C1=C(O)C(=O)N(C)C1` [Compound 50, 4-Hydroxy-1-methyl-5-oxo-2,5-dihydro-1H-pyrrole-3-carboxylic acid (2-fluoro-benzyl)-methoxy-amide] were 147 °C (dec.) and 92%.
For `CON(Cc1ccc(Cl)cc1)C(=O)C1=C(O)C(=O)N(C)C1` [Compound 51, 4-Hydroxy-1-methyl-5-oxo-2,5-dihydro-1H-pyrrole-3-carboxylic acid (4-chloro-benzyl)-methoxy-amide], in that order: 165 °C (dec.) and 99.9%.
Consider `CON(CCc1ccc(F)cc1)C(=O)C1=C(O)C(=O)N(C)C1` [Compound 52, 4-Hydroxy-1-methyl-5-oxo-2,5-dihydro-1H-pyrrole-3-carboxylic acid [2-(4-fluoro-phenyl)-ethyl]-methoxy-amide], for which the melting point was 157 °C (dec.). In addition, the inhibition at 20 µM on HIV-integrase stood at 86%.
`CON(Cc1ccc(F)cc1F)C(=O)C1=C(O)C(=O)N(C)C1` [Compound 60, 4-Hydroxy-1-methyl-5-oxo-2,5-dihydro-1H-pyrrole-3-carboxylic acid (2,4-difluoro-benzyl)-methoxy-amide]: the inhibition at 20 µM on HIV-integrase stood at 99.7%.
On the same count and under the same terms, the value for `CON(Cc1ccc(F)c(C#N)c1)C(=O)C1=C(O)C(=O)N(C)C1` [Compound 61, 4-Hydroxy-1-methyl-5-oxo-2,5-dihydro-1H-pyrrole-3-carboxylic acid (3-cyano-4-fluoro-benzyl)-methoxy-amide] was 99.3%; that for `CON(Cc1ccccc1OC(C)C)C(=O)C1=C(O)C(=O)N(C)C1` [Compound 66, 4-Hydroxy-1-methyl-5-oxo-2,5-dihydro-1H-pyrrole-3-carboxylic acid (2-isopropoxy)-methoxy-amide] was 99%.
On the same count and under the same terms, next, `COC(=O)c1ccc(CN(OC)C(=O)C2=C(O)C(=O)N(C)C2)cc1` [Compound 67, 4-{[(4-Hydroxy-1-methyl-5-oxo-2,5-dihydro-1H-pyrrole-3-carbonyl)-methoxy-amino]-methyl}-benzoic acid methyl ester]: 96.5%; `CON(Cc1ccc(C(=O)OC(C)(C)C)cc1)C(=O)C1=C(O)C(=O)N(C)C1` [Compound 68-A, 4-{[(4-Hydroxy-1-methyl-5-oxo-2,5-dihydro-1H-pyrrole-3-carbonyl)-methoxy-amino]-methyl}-benzoic acid tert-butyl ester]: 4.5%; `CON(C(=O)C1=C(O)C(=O)N(C)C1)C(c1ccc(F)cc1)c1ccc(F)cc1` [Compound 73, 4-Hydroxy-1-methyl-5-oxo-2,5-dihydro-1H-pyrrole-3-carboxylic acid [bis-(4-fluoro-phenyl)-methyl]-methoxy-amide]: 10%.
`CN1CC(C(=O)N(Cc2ccc(F)cc2)Cc2ccc(F)cc2)=C(O)C1=O` [Compound 76, 4-Hydroxy-1-methyl-5-oxo-2,5-dihydro-1H-pyrrole-3-carboxylic acid bis-(4-fluoro-benzyl)-amide]: the inhibition at 20 µM at HIV-integrase turned out to be 96%.
In the case of `CN1CC(C(=O)N(Cc2ccc(Cl)cc2)Cc2ccc(Cl)c(Cl)c2)=C(O)C1=O` [Compound 77, 4-Hydroxy-1-methyl-5-oxo-2,5-dihydro-1H-pyrrole-3-carboxylic acid (4-chloro-benzyl)-(3,4-dichloro-benzyl)-amide], at HIV-integrase, the inhibition at 20 µM was found to be 99.8%.
On the same count and under the same terms, next, `CN1CC(C(=O)N(C)Cc2ccccc2)=C(O)C1=O` [Compound 79, 4-Hydroxy-1-methyl-5-oxo-2,5-dihydro-1H-pyrrole-3-carboxylic acid benzyl-methyl-amide]: 92.4%.

A word on the melting point: it is the temperature of the solid-liquid transition. One may read the inhibition as the change of the read-out against control, counted positive when it falls.
